Tested on: cows with luteal P4 insufficiency
Assay: Study II: pregnancy rate after P4 supplementation with CIDR on Day 5 post AI in cows with luteal P4 insufficiency
Assay type: in vivo, Holstein-Friesian cows
Settings: mean milk P4 on Day 5 post AI 1 to 1.99 ng/ml; CIDR inserted Day 5 post AI for seven days
Protocol: Milk samples for P4 assay and reproductive data were collected from British Friesian and Holstein-Friesian cows in seven commercial herds. The cows were housed in a free-stall system and fed rations to meet their production and maintenance requirements. Data on calving date, parity, AI date and pregnancy were recorded. For the preliminary study, milk samples were collected daily for P4 determination from Day 7 postpartum until 100 days of the next gestation. The sampling protocol for animals in Studies I and II was limited to three milk samples per animal on Days 0, 5 and 24 post AI. […]
Milk P4 concentrations in an un-extracted aliquot of whole milk were measured using either radio immunoassay (RIA) as described by Lamming and Bulman (Lamming, G. E. and D. C. Bulman (1976) Br. Vet. J. 132: 507-517) and Bulman and Lamming (Bulman D. C. and G. E. Lamming (1978) J. Reprod. Fertil. 54: 447-458) or enzyme linked immunosorbent assay (ELISA) kit (Ridgeway Science Ltd., Gloucestershire, UK) as illustrated by Darwash et al. (Darwash A. O et al (1999b) Anim Sci. (in press)). All samples and quality controls (QC) were assayed in duplicate and the mean value of both readings were used to indicate milk P4 concentrations. […]
Following determination of pregnancy, the accuracy of using milk P4 concentrations on Day 24 post AI to predict pregnancy rates was calculated. […]

Compound: CC(=O)[C@H]1CC[C@H]2[C@@H]3CCC4=CC(=O)CC[C@]4(C)[C@H]3CC[C@]12C [P4, progesterone]
- Pregnancy (%), treated: 57.9%
